The text below walks through data of patent US9040529B2 (Vichem Chemie Kutató Kft., priority 2009, dated 2015).

In this test the target is T1, human CDK9/CyclinT kinase complex (Homo sapiens, UniProt P50750).
T1 construct: purchased Proqinase 0371-0345-1
The test can be described thus: In vitro CDK9/CyclinT assay (IMAP fluorescence polarization kinase assay). The class given is biochemical. The conditions noted are these: for IC50: 5 nM CDK9/CyclinT, 400 nM TAMRA-Rbtide, 12 μM ATP, 1 hour at room temperature, read-out: CDK9 inhibitory range. The method, then: In Vitro CDK9/CyclinT Assay
The activity of the compounds described in the present invention can be determined by the following kinase assay, which measures the phosphorylation of a fluorescently-labeled peptide by human CDK9/CyclinT kinase complex by fluorescent polarization using a commercially available IMAP Screening Express Assay Kit (Molecular devices).
CDK9 kinase assays were performed in low protein binding 384-well plates (Corning 3676). Test compounds were diluted in 100% DMSO to 5 mM stock concentration, then further dilutions were made in H2O or 100% DMSO to desirable concentrations.
Each reaction consisted of 5 nM enzyme: CDK9/CyclinT (Proqinase cat#0371-0345-1), 400 nM TAMRA-Rbtide (synthetic 15-mer peptide derived from human retinoblastoma tumor suppressor protein labelled with TAMRA dye, Genecust Europe), 12 μM ATP (=Kmapp, Sigma-Aldrich) and kinase buffer: 20 mM MOPS pH 7 (Sigma-Aldrich), 1 mM DTT (Sigma-Aldrich), 10 mM MgCl2 (Sigma-Aldrich), 0.01% Tween 20 (Sigma-Aldrich).
For each reaction, 4 or 6 μl containing TAMRA-Rbtide, ATP and kianse buffer were combined with 2 μl diluted compound in H2O or 0.028 μl compound in 100% DMSO. The kinase reaction was started by the addition of 2 μl diluted enzyme. The reaction was allowed to run for 1 hours at room temperature. The reaction was stopped by adding 15 μl IMAP beads (1:400 beads in progressive (100% buffer A) 1× buffer). After an additional 1 hours, fluorescent polarization (Ex: 550-10 nm, Em: 590-10 nm, Dich: 561 nm) was measured using an Analyst GT (Molecular devices).
On the technique in general: Fluorescence polarisation rises when a labelled molecule tumbles more slowly, as on binding a larger partner.

Structures can show the parent of a compound that is named as a salt.

T1 sequence (P50750 whole entry): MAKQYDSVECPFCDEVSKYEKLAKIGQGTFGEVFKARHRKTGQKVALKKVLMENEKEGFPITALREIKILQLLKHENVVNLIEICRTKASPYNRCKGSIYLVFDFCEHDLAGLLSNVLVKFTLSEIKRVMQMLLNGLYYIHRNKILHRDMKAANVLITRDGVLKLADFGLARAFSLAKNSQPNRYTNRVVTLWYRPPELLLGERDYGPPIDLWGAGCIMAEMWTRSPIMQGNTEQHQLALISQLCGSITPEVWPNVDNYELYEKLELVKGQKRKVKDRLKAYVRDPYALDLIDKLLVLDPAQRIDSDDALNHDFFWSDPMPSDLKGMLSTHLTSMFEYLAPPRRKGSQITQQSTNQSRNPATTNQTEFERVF
T1 sequence (O60563 whole entry partner): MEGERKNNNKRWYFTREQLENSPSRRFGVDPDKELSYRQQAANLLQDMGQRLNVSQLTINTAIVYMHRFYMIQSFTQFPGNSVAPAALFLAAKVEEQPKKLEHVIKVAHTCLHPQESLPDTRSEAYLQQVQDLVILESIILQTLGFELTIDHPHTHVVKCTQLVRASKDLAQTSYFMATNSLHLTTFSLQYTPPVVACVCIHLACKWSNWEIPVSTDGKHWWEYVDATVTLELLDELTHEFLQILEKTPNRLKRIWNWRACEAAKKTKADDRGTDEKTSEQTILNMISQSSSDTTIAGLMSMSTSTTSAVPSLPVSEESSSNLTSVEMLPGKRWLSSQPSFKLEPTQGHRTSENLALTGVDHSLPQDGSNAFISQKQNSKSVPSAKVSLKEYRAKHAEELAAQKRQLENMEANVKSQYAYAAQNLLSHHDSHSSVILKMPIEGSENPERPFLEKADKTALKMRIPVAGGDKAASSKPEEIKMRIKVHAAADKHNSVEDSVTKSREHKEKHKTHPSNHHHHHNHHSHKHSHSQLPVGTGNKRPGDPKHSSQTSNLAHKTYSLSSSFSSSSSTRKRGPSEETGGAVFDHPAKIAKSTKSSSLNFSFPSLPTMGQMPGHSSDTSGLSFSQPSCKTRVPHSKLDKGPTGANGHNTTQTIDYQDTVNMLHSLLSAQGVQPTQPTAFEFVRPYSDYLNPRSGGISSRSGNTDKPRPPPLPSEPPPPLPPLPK

As for `CS(=O)(=O)NCc1cccc(Nc2cc(-c3ccc(F)cc3F)ncn2)c1` [Example 17, N-{3-[6-(2,4-Difluoro-phenyl)-pyrimidin-4-ylamino]-benzyl}-methanesulfonamide], the IC50 is below 10 µM.

For the molecule `CS(=O)(=O)NCc1ccc(Nc2cc(-c3ccccc3OCc3ccc(F)cc3)ncn2)cc1` [Example 36, N-(4-{6-[2-(4-Fluoro-benzyloxy)-phenyl]-pyrimidin-4-ylamino}-benzyl)-methanesulfonamide], the IC50 is below 1 µM.

For `COc1cc(F)ccc1-c1cc(Nc2cccc(CNS(C)(=O)=O)c2)ncn1` [Example 7, N-{3-[6-(4-Fluoro-2-methoxy-phenyl)-pyrimidin-4-ylamino]-benzyl}-methanesulfonamide], the CDK9 inhibitory effect result is reported as “nanomolar or low nanomolar range” and the IC50 was below 0.1 µM.

Consider `CC(C)Oc1cc(F)ccc1-c1cc(Nc2ccc(CNS(C)(=O)=O)cc2)ncn1` [Example 48, N-{4-[6-(4-Fluoro-2-isopropoxy-phenyl)-pyrimidin-4-ylamino]-benzyl}-methanesulfonamide], for which the CDK9 inhibitory effect entry is “nanomolar or low nanomolar range” and the IC50 was below 0.1 µM.

For the molecule `CS(=O)(=O)NCc1cccc(Nc2cc(-c3cccc(C(N)=O)c3)ncn2)c1` [Example 20, 3-{6-[3-(Methanesulfonylamino-methyl)-phenylamino]-pyrimidin-4-yl}-benzamide], the IC50 was below 10 µM.

As for `CC(C)Oc1cc(F)ccc1-c1cc(Nc2ccc(Cn3cnc4ccccc43)cc2)ncn1` [Example 88, (4-Benzoimidazol-1-ylmethyl-phenyl)-[6-(4-fluoro-2-isopropoxy-phenyl)-pyrimidin-4-yl]-amine], the IC50 is below 1 µM.

With `CCCS(=O)(=O)NCc1cccc(Nc2cc(-c3ccccc3OC)ncn2)c1` [Example 71, Propane-1-sulfonic acid 3-[6-(2-methoxy-phenyl)-pyrimidin-4-ylamino]-benzylamide], the CDK9 inhibitory effect entry is “nanomolar or low nanomolar range” and the IC50 was below 0.1 µM.

Take `CS(=O)(=O)NCc1ccc(Nc2cc(-c3cccc(N)c3)ncn2)cc1` [Example 46, N-{4-[6-(3-Amino-phenyl)-pyrimidin-4-ylamino]-benzyl}-methanesulfonamide hydrochloride]: the IC50 is below 10 µM.

For the molecule `Oc1ccc(-c2cc(Nc3cccc(Cn4cnc5ccccc54)c3)ncn2)cc1` [Example 82, 4-[6-(3-Benzoimidazol-1-ylmethyl-phenylamino)-pyrimidin-4-yl]-phenol], the IC50 is below 1 µM.

On to `CC(C)Oc1ccccc1-c1cc(Nc2cccc(CNS(C)(=O)=O)c2)ncn1` [Example 8, N-{3-[6-(2-Isopropoxy-phenyl)-pyrimidin-4-ylamino]-benzyl}-methanesulfonamide], for which the IC50 was below 1 µM.

With `COc1ccc(F)cc1-c1cc(Nc2cccc(Cn3cnc4ccccc43)c2)ncn1` [Example 66, (3-Benzoimidazol-1-ylmethyl-phenyl)-[6-(5-fluoro-2-methoxy-phenyl)-pyrimidin-4-yl]-amine], the CDK9 inhibitory effect entry is listed as “nanomolar or low nanomolar range” and the IC50 was below 0.1 µM.

With `COc1ccccc1-c1cc(Nc2cccc(CNc3nc4ccccc4[nH]3)c2)ncn1` [Example 60, (1H-Benzoimidazol-2-yl)-{3-[6-(2-methoxy-phenyl)-pyrimidin-4-ylamino]-benzyl}-amine], the IC50 was below 1 µM.

As to `COc1ccc(-c2cc(Nc3ccc(CNS(C)(=O)=O)cc3)ncn2)cc1` [Example 57, N-{4-[6-(4-Methoxy-phenyl)-pyrimidin-4-ylamino]-benzyl}-methanesulfonamide], the IC50 is below 1 µM.

As for `CS(=O)(=O)NCc1ccc(Nc2cc(-c3ccc(F)cc3F)ncn2)cc1` [Example 42, N-{4-[6-(2,4-Difluoro-phenyl)-pyrimidin-4-ylamino]-benzyl}-methanesulfonamide], the IC50 was above 10 µM.

In the case of `CC(C)Oc1cc(F)ccc1-c1cc(Nc2cccc(CNc3nc4ccccc4[nH]3)c2)ncn1` [Example 77, (1H-Benzoimidazol-2-yl)-{3-[6-(4-fluoro-2-isopropoxy-phenyl)-pyrimidin-4-ylamino]-benzyl}-amine], the IC50 is below 0.1 µM.

On to `COc1cc(Cl)ccc1-c1cc(Nc2cccc(CNS(C)(=O)=O)c2)ncn1` [Example 25, N-{3-[6-(4-Chloro-2-methoxy-phenyl)-pyrimidin-4-ylamino]-benzyl}-methanesulfonamide], for which the IC50 is below 1 µM.

Turning to `CS(=O)(=O)NCc1cccc(Nc2cc(-c3ccccc3OC(F)(F)F)ncn2)c1` [Example 15, N-{3-[6-(2-Trifluoromethoxy-phenyl)-pyrimidin-4-ylamino]-benzyl}-methanesulfonamide], the IC50 was below 10 µM.

Turning to `COc1ccccc1-c1cc(Nc2cccc(CN3C(=O)c4ccccc4C3=O)c2)ncn1` [Example 68, 2-{3-[6-(2-Methoxy-phenyl)-pyrimidin-4-ylamino]-benzyl}-isoindole-1,3-dione], the CDK9 inhibitory effect entry is recorded as “nanomolar or low nanomolar range” and the IC50 is below 0.1 µM.

For `O=C1c2ccccc2C(=O)N1Cc1cccc(Nc2cc(Cl)ncn2)c1` [Example 67, 2-[3-(6-Chloro-pyrimidin-4-ylamino)-benzyl]-isoindole-1,3-dione], the IC50 is above 10 µM.

Take `CS(=O)(=O)NCc1ccc(Nc2cc(Cl)ncn2)cc1` [Example 33, N-[4-(6-Chloro-pyrimidin-4-ylamino)-benzyl]-methanesulfonamide]: the IC50 was above 10 µM.

On to `CCOc1ccccc1-c1cc(Nc2cccc(CNS(C)(=O)=O)c2)ncn1` [Example 5, N-{3-[6-(2-Ethoxy-phenyl)-pyrimidin-4-ylamino]-benzyl}-methanesulfonamide], for which the CDK9 inhibitory effect entry is “nanomolar or low nanomolar range” and the IC50 was below 0.1 µM.

In the case of `CS(=O)(=O)NCc1cccc(Nc2cc(-c3ccccc3)ncn2)c1` [Example 21, N-[3-(6-Phenyl-pyrimidin-4-ylamino)-benzyl]-methanesulfonamide], the IC50 was below 10 µM.

For `Clc1cc(Nc2ccc(Cn3cnc4ccccc43)cc2)ncn1` [Example 86, (4-Benzoimidazol-1-ylmethyl-phenyl)-(6-chloro-pyrimidin-4-yl)-amine], the IC50 was above 10 µM.

Regarding `COc1cc(F)ccc1-c1cc(Nc2cccc(Cn3c(CN4CCOCC4)nc4ccccc43)c2)ncn1` [Example 94, [6-(4-Fluoro-2-methoxy-phenyl)-pyrimidin-4-yl]-[3-(2-morpholin-4-ylmethyl-benzoimidazol-1-ylmethyl)-phenyl]-amine], the IC50 is below 10 µM.

For `COc1ccccc1-c1cc(Nc2cccc(Cn3c(CN4CCOCC4)nc4ccccc43)c2)ncn1` [Example 93, [6-(2-Methoxy-phenyl)-pyrimidin-4-yl]-[3-(2-morpholin-4-ylmethyl-benzoimidazol-1-ylmethyl)-phenyl]-amine], the IC50 is below 10 µM.

With `Cc1ccccc1-c1cc(Nc2cccc(CNS(C)(=O)=O)c2)ncn1` [Example 11, N-[3-(6-o-Tolyl-pyrimidin-4-ylamino)-benzyl]-methanesulfonamide], the IC50 is below 10 µM.
